From patent US20070065484A1, “In situ occlusion using natural biodegradable polysaccharides” (priority 2005, published 2007)
Like-named read-outs stand apart in the source and are kept apart here.

Test system: PC-12 cells
Conditions: incubation 15 min
Method: Cell suspensions were prepared as follows: PC-12 cells (ATCC; passage 5; 75% confluency) were harvested from a T-75 flask using Trypsin-EDTA for 2 minutes. The cells were placed in a 15 mL polyethylene conical (VWR) and centrifuged in F-12k media without serum for 4 minutes at 500 rpm. The cells were counted using a hemocytometer, centrifuged for 4 minutes at 500 rpm, and resuspended at 600,000 cells/mL in sterile PBS.
In order to determine the effect of individual components of the matrix forming compositions on cell viability, solutions A-G were independently mixed with PC-12 cells. 50 uL of cell suspension was added to 350 uL of solutions A-G (Table 4). After a 15 minute incubation, cell viability was assessed using a Live/Dead™ Viability/Cytotoxicity Kit (cat. # L3224; Molecular Probes, Eugene, Oreg.).
The effect of a formed matrix on cell viability was also tested. To form the PD-A matrix, solution #1 (200 mg PD-A, 10 uL TEMED, 20 uL 1N HCl, 470 uL PBS) was added in the amount of 200 uL to a 1.6 ml eppendorf (VWR). Solution #2 (400 mg PD-A, 10 mg Potassium persulfate, 75K PC-12 cells, 500 uL PBS ) was added in the amount of 200 uL to solution #1 in the eppendorf and mixed for 10 seconds. After a 15 minute incubation, cell viability was assessed using the Live/Dead™ Viability/Cytotoxicity Kit.

N.N.O=S(=O)(O)OOS(=O)(=O)O [Ammonium persulfate]
Cell viability (%) (10 mg/ml in PBS): 90%
Cell viability (%) (120 mg/ml in PBS): 90%

O=S(=O)([O-])OOS(=O)(=O)[O-].[Na+].[Na+] [Sodium persulfate]
Cell viability (%) (5 mg/ml in PBS): 90%

CN(C)CCN(C)C [TEMED/PBS, N,N,N′,N′-Tetramethylethylenediamine]
Cell viability (%) (0.2% (V/V) in PBS): 10-30%

O=S(=O)([O-])OOS(=O)(=O)[O-].[K+].[K+] [Potassium persulfate]
Cell viability (%) (10 mg/ml in PBS): 90%
